Data on 28 molecules can be found in US11884675B2, “Heterocyclic compounds as triggering receptor expressed on myeloid cells 2 agonists and methods of use” (AMGEN INC., priority 2020, dated 2024).

For this experiment, the target named is hTREM2 (Homo sapiens, UniProt Q9NZC2). Nature of the experiment: TREM2 activity by cellular Syk phosphorylation (AlphaScreen/AlphaLISA) in TREM2/DAP12-HEK cells, used for Examples 1-305. It counts as cell-based. Also on record: expressed in transfected cells. As to conditions: HEK293 Cells. Put shortly:
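Phospho-Syk (Tyr525/526) over total Syk quantified by AlphaScreen in lysates of cloned TREM2/DAP12-overexpressing HEK293 cells after 45 min compound treatment at room temperature, 1% final DMSO. Values expressed relative to 100 nM anti-TREM2 antibody (positive) and isotype IgG (negative) controls; curves fitted with 4-parameter logistic model.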
In general terms: Bead proximity is the source of the signal in Alpha formats.

Chain of hTREM2 (Q9NZC2 19-230): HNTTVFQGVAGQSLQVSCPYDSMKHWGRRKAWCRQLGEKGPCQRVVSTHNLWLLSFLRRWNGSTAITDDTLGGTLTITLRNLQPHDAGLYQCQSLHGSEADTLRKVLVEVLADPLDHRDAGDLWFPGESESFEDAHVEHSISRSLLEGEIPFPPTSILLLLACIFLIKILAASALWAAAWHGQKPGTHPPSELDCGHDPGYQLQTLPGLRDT
Chain of hTREM2 (O43914 22-113 partner): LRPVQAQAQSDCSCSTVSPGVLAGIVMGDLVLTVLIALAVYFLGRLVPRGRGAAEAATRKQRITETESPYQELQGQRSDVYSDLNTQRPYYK

Take `Cc1cc([C@H]2CN(c3nc4nc(C)c(C)nc4c([C@H]4C[C@H](C(F)(F)F)C4)n3)CCO2)ccn1` [Example 55]: the EC50 is at most 0.05 µM; the “hTREM2 Emax” value is “+++ (Emax>150 and ≤250)”.
For the molecule `Cc1ccc(-c2cc([C@H]3CCO[C@@H](c4cnn(C)c4)C3)nc3nc(C)c(C)nc23)c(F)c1` (single isomer, unassigned) [Example 190], the EC50 was at most 0.05 µM; the “hTREM2 Emax” value is “+++ (Emax>150 and ≤250)”.
Consider `Cc1nc2nc([C@@H]3CCO[C@H](c4cnn(C)c4)C3)cc(-c3ccc(F)cc3F)c2nc1C` [Example 255, 8-(2,4-difluorophenyl)-2,3-dimethyl-6-((2S,4R)-2-(1-methyl-1H-pyrazol-4-yl)tetrahydro-2H-pyran-4-yl)pyrido[2,3-b]pyrazine], for which the EC50 fell in the range of 0.5 to 3 µM; the “hTREM2 Emax” value is “++ (Emax>100 and ≤150)”.
Consider `Cc1nc2nc(N3CCO[C@@H](c4cnn(C)c4)C3)nc(C3CCCCC3)c2nc1C` [Example 134, 4-cyclohexyl-6,7-dimethyl-2-((2S)-2-(1-methyl-1H-pyrazol-4-yl)-4-morpholinyl)pteridine], for which the EC50 lay within 0.05 to 0.5 µM; the “hTREM2 Emax” value was “+ (Emax>45 and ≤100)”.
As to `Cc1nc2nc(N3CCO[C@@H](c4cnn(C5CC5)c4)C3)nc(C34CC(C(F)(F)F)(C3)C4)c2nc1C` [Example 64, 2-((2S)-2-(1-cyclopropyl-1H-pyrazol-4-yl)-4-morpholinyl)-6,7-dimethyl-4-(3-(trifluoromethyl)bicyclo[1.1.1]pentan-1-yl)pteridine], the EC50 was at most 0.05 µM; the “hTREM2 Emax” value was “+++ (Emax>150 and ≤250)”.
On to `Cc1cc2cc(N3CCO[C@@H](c4cnn(C)c4)C3)nc(-c3ccc(Cl)cc3F)c2nc1C` [Example 237, (S)-4-(8-(4-chloro-2-fluorophenyl)-2,3-dimethyl-1,7-naphthyridin-6-yl)-2-(1-methyl-1H-pyrazol-4-yl)morpholine], for which the EC50 fell in the range of 3 to 100 µM; the “hTREM2 Emax” value was “+++ (Emax>150 and ≤250)”.
With `Cc1nc2nc(N3CCO[C@@H](c4cnn(C)c4)C3)nc(-c3ccc(F)c(F)c3)c2nc1C` [Example 60, 4-(3,4-difluorophenyl)-6,7-dimethyl-2-((2S)-2-(1-methyl-1H-pyrazol-4-yl)-4-morpholinyl)pteridine], the EC50 was at most 0.05 µM; the “hTREM2 Emax” value was “+++ (Emax>150 and ≤250)”.
As to `Cc1cc([C@H]2CN(c3nc(-c4ccc(Cl)cc4F)c4ccc(C)nc4n3)CCO2)cnn1` (single isomer, unassigned) [Example 86], the EC50 was at most 0.05 µM and the “hTREM2 Emax” value is “++++ (Emax>250)”.
`Cc1ccc2c(-c3ccc(Cl)cc3F)nc([C@@H]3CCO[C@H](c4cnn(C)c4)C3)nc2n1` [Example 288, 4-(4-chloro-2-fluorophenyl)-7-methyl-2-((2S,4R)-2-(1-methyl-1H-pyrazol-4-yl)tetrahydro-2H-pyran-4-yl)pyrido[2,3-d] pyrimidine]: the EC50 is at most 0.05 µM; the “hTREM2 Emax” value is “++ (Emax>100 and ≤150)”.
Turning to `Cc1ccc2c(-c3ccc(Cl)cc3F)cc(N3CCO[C@@H](c4cnn(C)c4)C3)nc2n1` [Example 156, 4-(4-chloro-2-fluorophenyl)-7-methyl-2-((2S)-2-(1-methyl-1H-pyrazol-4-yl)-4-morpholinyl)-1,8-naphthyridine], the EC50 lay within 0.05 to 0.5 µM; the “hTREM2 Emax” value is “+++ (Emax>150 and ≤250)”.
For `Cc1cc([C@H]2CN(c3nc(-c4ccc(F)cc4F)c4cc(C)c(C)nc4n3)CCO2)ccn1` [Example 168, 4-(2,4-difluorophenyl)-6,7-dimethyl-2-((2S)-2-(2-methyl-4-pyridinyl)-4-morpholinyl)pyrido[2,3-d] pyrimidine], the EC50 is at most 0.05 µM and the “hTREM2 Emax” value is given as “++++ (Emax>250)”.
Regarding `Cc1nc2nc(N3CCO[C@@H](c4cnn(C)c4)C3)nc(-c3cc(F)c(F)c(F)c3)c2nc1C` [Example 18, 6,7-dimethyl-2-((2S)-2-(1-methyl-1H-pyrazol-4-yl)-4-morpholinyl)-4-(3,4,5-trifluorophenyl)pteridine], the EC50 is at most 0.05 µM; the “hTREM2 Emax” value was “+++ (Emax>150 and ≤250)”.
As to `Cc1cc([C@@H]2CN(c3nc4nc(C)cnc4c([C@H]4C[C@@H](C(F)(F)F)C4)n3)CCO2)cnn1` (single isomer, unassigned) [Example 14], the EC50 lay in the range of 0.05 to 0.5 µM; the “hTREM2 Emax” value is “++ (Emax>100 and ≤150)”.
On to `Cc1cc([C@H]2CN(c3nc(-c4ccc(F)cc4F)c4ccc(C)nc4n3)CCO2)ccn1` [Example 93, 4-(2,4-difluorophenyl)-7-methyl-2-((2S)-2-(2-methyl-4-pyridinyl)-4-morpholinyl)pyrido[2,3-d]pyrimidine], for which the EC50 was at most 0.05 µM; the “hTREM2 Emax” value is “+++ (Emax>150 and ≤250)”.
In the case of `Cc1cc([C@H]2CN(c3cc(-c4ccc(F)cc4F)c4cnc(C)nc4c3)CCO2)ccn1` [Example 154, 5-(2,4-difluorophenyl)-2-methyl-7-((2S)-2-(2-methyl-4-pyridinyl)-4-morpholinyl) quinazoline], the EC50 fell in the range of 0.05 to 0.5 µM and the “hTREM2 Emax” value was “++++ (Emax>250)”.
Take `Cc1nc2nc(N3CCO[C@@H](c4cnn(C)c4)C3)nc([C@@H]3CCC(C)(C)C3)c2nc1C` [Example 303, (S)-4-(4-((R)-3,3-dimethylcyclopentyl)-6,7-dimethylpteridin-2-yl)-2-(1-methyl-1H-pyrazol-4-yl)morpholine]: the EC50 lay in the range of 0.05 to 0.5 µM; the “hTREM2 Emax” value is “++ (Emax>100 and ≤150)”.
Take `Cc1ccc2c(C34CC(C(F)(F)F)(C3)C4)nc(N3CCO[C@@H](c4cnn(C)c4)C3)nc2n1` [Example 100, 7-methyl-2-((2S)-2-(1-methyl-1H-pyrazol-4-yl)-4-morpholinyl)-4-(3-(trifluoromethyl)bicyclo[1.1.1]pentan-1-yl)pyrido[2,3-d]pyrimidine]: the EC50 fell in the range of 0.05 to 0.5 µM; the “hTREM2 Emax” value was “++ (Emax>100 and ≤150)”.
For `Cc1nc2nc(N3CCO[C@@H](c4cnn(C)c4)C3)nc(N3CCC(C)(C)CC3)c2nc1C` [Example 67, 4-(4,4-dimethyl-1-piperidinyl)-6,7-dimethyl-2-((2S)-2-(1-methyl-1H-pyrazol-4-yl)-4-morpholinyl)pteridine], the EC50 was 0.05 to 0.5 µM; the “hTREM2 Emax” value is “+ (Emax>45 and ≤100)”.
Consider `Cc1nc2nc([C@H]3CCO[C@H](c4cnn(C)c4)C3)nc(-c3ccc(F)cc3F)c2nc1C` [Example 263, 4-(2,4-difluorophenyl)-6,7-dimethyl-2-((2S,4S)-2-(1-methyl-1H-pyrazol-4-yl)tetrahydro-2H-pyran-4-yl)pteridine], for which the EC50 lay within 0.5 to 3 µM; the “hTREM2 Emax” value was “+++ (Emax>150 and ≤250)”.
As to `Cc1nc2nc(N3CCO[C@@H](c4cnn(C)c4)C3)nc([C@H]3C[C@@H](C(F)(F)F)C3)c2nc1C` [Example 43, 6,7-dimethyl-2-((2S)-2-(1-methyl-1H-pyrazol-4-yl)-4-morpholinyl)-4-(cis-3-(trifluoromethyl)cyclobutyl)pteridine], the EC50 lay within 0.05 to 0.5 µM; the “hTREM2 Emax” value is “+++ (Emax>150 and ≤250)”.
Regarding `Cc1nc2nc([C@H]3CCO[C@H](c4cnn(C)c4)C3)cc(-c3ccc(F)cc3F)c2nc1C` [Example 265, 8-(2,4-difluorophenyl)-2,3-dimethyl-6-((2S,4S)-2-(1-methyl-1H-pyrazol-4-yl)tetrahydro-2H-pyran-4-yl)pyrido[2,3-b]pyrazine], the EC50 lay in the range of 0.5 to 3 µM; the “hTREM2 Emax” value is “+++ (Emax>150 and ≤250)”.
As to `Cc1nc2nc(N3CCO[C@@H](c4cnn(C)c4)C3)nc(C3CCC(Cl)CC3)c2nc1C` (mixture of isomers) [Example 165, 4-(trans-4-chlorocyclohexyl)-6,7-dimethyl-2-((2S)-2-(1-methyl-1H-pyrazol-4-yl)-4-morpholinyl) pteridine], the EC50 was at most 0.05 µM; the “hTREM2 Emax” value was “+++ (Emax>150 and ≤250)”.
Turning to `Cc1cc([C@H]2CN(c3nc4nc(C)ccc4c([C@H]4C[C@H](C(F)(F)F)C4)n3)CCO2)ccn1` [Example 99, 7-methyl-2-((2S)-2-(2-methyl-4-pyridinyl)-4-morpholinyl)-4-(trans-3-(trifluoromethyl)cyclobutyl)pyrido[2,3-d]pyrimidine], the EC50 was at most 0.05 µM; the “hTREM2 Emax” value is “+ (Emax>45 and ≤100)”.
On to `Cc1cc([C@H]2C[C@H](c3nc(-c4ccc(Cl)cc4F)c4nc(C)c(C)nc4n3)CCO2)ccn1` [Example 273, 4-(4-chloro-2-fluorophenyl)-6,7-dimethyl-2-((2R,4R)-2-(2-methylpyridin-4-yl)tetrahydro-2H-pyran-4-yl)pteridine], for which the EC50 was at most 0.05 µM; the “hTREM2 Emax” value is “+++ (Emax>150 and ≤250)”.
In the case of `Cc1cnc2c(-c3ccc(Cl)cc3F)nc([C@@H]3CCO[C@H](c4cnn(C)c4)C3)cc2n1` [Example 248, 5-(4-chloro-2-fluorophenyl)-2-methyl-7-((2S,4R)-2-(1-methyl-1H-pyrazol-4-yl)tetrahydro-2H-pyran-4-yl)pyrido[3,4-b] pyrazine], the EC50 lay in the range of 0.5 to 3 µM; the “hTREM2 Emax” value was “+++ (Emax>150 and ≤250)”.
For `Cc1cc([C@H]2CN(c3nc(-c4ccc(Cl)cc4F)c4cc(C)c(C)nc4n3)CCO2)cnn1` (single isomer, unassigned) [Example 104], the EC50 was at most 0.05 µM; the “hTREM2 Emax” value was “+++ (Emax>150 and ≤250)”.
Regarding `Cc1cc([C@H]2C[C@@H](c3nc(-c4ccc(Cl)cc4F)c4nc(C)c(C)nc4n3)CCO2)ccn1` (single isomer, unassigned) [Example 207], the EC50 was at most 0.05 µM; the “hTREM2 Emax” value is “+++ (Emax>150 and ≤250)”.
Turning to `Cc1cc([C@H]2CN(c3nc4nc(C)c(C)cc4c([C@H]4C[C@H](C(F)(F)F)C4)n3)CCO2)ccn1` [Example 115, 6,7-dimethyl-2-((2S)-2-(2-methyl-4-pyridinyl)-4-morpholinyl)-4-(trans-3-(trifluoromethyl)cyclobutyl)pyrido[2,3-d]pyrimidine], the EC50 was at most 0.05 µM; the “hTREM2 Emax” value is “++ (Emax>100 and ≤150)”.

For orientation: EC50 means the concentration needed to bring the measured effect to its halfway point. A high value points to weaker potency.
